The nature of data set [1]: Solid-phase binding of biotinylated peptides (NA-HRP tetramers) to HS-coated plates. As to conditions: for Binding to substrate-bound HS: HS-coated 96-well plates, peptide tetramers with NA-HRP, PBST with 1% BSA, 2 hr, room temperature, OPD read at 450 nm; for Binding to HS in presence of heparin competitor: HS-coated plates, pre-incubation of peptide with excess soluble heparin. Here is the method: Fig 6 Peptides corresponding to the novel HBD bind HS with high affinity. 96-well plates were coated with HS and incubated with tetrameric peptide complexes (HBC) for 2 hrs. Plates were washed, and bound peptides were assessed by addition of OPD substrate. A and B, schematic diagram depict the amino acid sequences of Act A- X2^13-37 and Act A- X3^259-272 peptides and their location within the full-length proteins, respectively. C, solid phase binding assays of Act A peptides to HS. […] Inset, double reciprocal plot that yields a Kd of 4 nM (n = 3) for Act A- X2^13-37.
Peptides encompassing the heparin binding domains, contained the putative Cardin-Weintraub (CW) motif and a minimum of 2 flanking amino acids on the N- and C- terminal sides of the domain. Three Glycine residues were added to the N-terminus of each peptide to provide a flexible linker between an N-terminal biotin tag and the peptide itself (See Table 6). Peptides were purified by reverse phase HPLC and peptide mass was confirmed by MALDI-TOF mass spectrometry. All peptides were synthesized and purified by Peptide 2 (Chantilly, VA). Where indicated, biotinylated peptides were oligomerized into tetramers by incubation with NAHRP (each avidin molecule binding 4 biotins ([57]) as described.
Nunc MaxiSorp flat bottom 96 well plates were coated with HS in 50 mM carbonate buffer (pH 9.4) overnight at 4°C as described. All binding assays were carried out in 1 x PBS, 0.1% tween 20 (PBST) containing 1% bovine serum albumin. Plates were incubated with peptides for a minimum of 2 hr at room temperature with gentle shaking. At the termination of the assay, the plates were washed 3 times with PBST and a final rinse with PBS. Plates were developed by addition of HRP substrate O-phenylenediamine dihydrochloride (OPD) in Citrate-Phosphate buffer (25 mM citric acid, 50 mM sodium phosphate, pH 5) and read at 450 nm in a Bio-Tek Synergy HT plate reader.

Another data set deals with U937 cell surface. Briefly: Peptide binding to intact U937 cells, FACS. The note with it: formalin-fixed U937 cells; for Binding to U937 cell surface: biotinylated peptide complexed with NA-488, 2 hr on ice, FACS (FL1); for Binding to U937 cell surface in presence of heparin competitor: peptide complexed with NA-488, excess soluble heparin, FACS. It counts as cell-based, human. The protocol: Fig 7 HBD peptides bind to the cell surface with avidity. A, U937 cells were incubated with peptide complexes consisting of biotinylated peptides pre-incubated with NA-488. Following incubation, the cells were washed, and bound peptide was assessed by FACS analysis. […] In contrast, Act A-X3^259-272 peptide fails to bind. Binding specificity was verified using a previously characterized peptide encompassing the high affinity HBD from BMP4. B, representative FACS plots show binding of Act A- X2^13-37 in the absence (blue line) or presence (red line) of heparin competitor. C, representative FACS plots showing binding of Act A- X2^13-37 (blue line), lack of binding by Act A-X3^259-272 (red line) and background signal generated by U937 cells alone (green line). Statistical Analysis (Student’s t test): NA488 vs ActA X2^13-37, NA488 vs BMP4: ****: P< = 0.0001, **: P< = 0.01.
U937 cells were washed with PBS and fixed with 2% buffered formalin for 20 min on ice. The cells were washed with PBS and blocked by incubation in PBS, 1% BSA for 20 min on ice. Approximately […] cells (100 μl) were incubated with peptide tetramers consisting of biotinylated peptide complexed with NA-488. Following incubation for 2 hr on ice, the cells were washed and analyzed on a BD Accuri Flow Cytometer (FL1 channel), located in the Flow Cytometry Core Laboratory at CHOP.

For data set [2] the following is noted: rat, in vivo, iv; cited from earlier work. The text has this:
As pointed out above, past and recent studies on Act A biology and function have made use of the X3 variant or the mature protein but to our knowledge, the X1 or X2 variants have not been tested. For example, Harrington et al. used recombinant Act A mature protein to clarify the structural basis by which Fs inhibits Act A signaling. […] Wang et al. carried out a detailed analysis of mechanisms involved in initiation of Act A biological activity, using the X3 ...

Data set [3] has as its system Act A X1 and X2 variant transcripts in U937 cells. As to the kind of experiment: Induction of Act A variant transcripts in U937 cells, PCR. It is filed as cell-based, human. Here is the method:
(§1) Total RNA was isolated using TRIzol Reagent (Thermo-Fisher) following the manufacturers protocol. Five μg of glycogen (Thermo-Fisher AM9510) was added to the aqueous phase prior to the addition of isopropanol to facilitate RNA precipitation. For some experiments, RNA quantification was determined using a Nanodrop spectrophotometer. cDNA was prepared from 2 μg of purified RNA, using oligo dT as primer, supplied with the Verso cDNA synthesis kit (Thermo-Fisher # AB1453A) or SuperScript IV Reverse Transcriptase (Thermo-Fisher #18090010) following the manufactures protocol. All PCR reactions were performed using Act A specific primers and GoTaq Green Master Mix (Promega) following the manufacturers protocols. PCR reactions were optimized by gradient PCR, using an Applied Biosystems Veriti Thermal Cycler. PCR products were size fractionated on 1% agarose gels, the bands were isolated, DNA was extracted from gel slices using Micro Bio-Spin columns (Bio Rad# 7326204) and sequenced. All DNA sequencing was performed by the NAPCore Facility at CHOP.
(§2) U937 (human pro-monocytic) and THP-1 (human monocytic) cell lines were grown in RPMI containing 10% fetal bovine serum in a humidified atmosphere of 5% CO2. Cells were treated with PMA (100 ng/ml; 160 nM) for 4 hr (23) or GM-CSF (1 ng/ml) for 8 hr in RPMI containing 1% fetal bovine serum.

For data set [4], the system named is Act A X1 and X2 variant transcripts in THP1 cells. Briefly: Induction of Act A variant transcripts in THP1 cells, PCR. It is filed as cell-based, human. As to conditions: GM-CSF 1 ng/ml for 8 hr. Here is the method:
as §1, §2

Data set [5] concerns Act A expression in purified human monocytes. As to conditions: ref [41]; cited from earlier work. Here is the method:
It should be noted that the above transcript/protein predictions of variants are based on computational genomic analyses that were conducted initially by the MGC team using ESTs to explore the transcriptome and then subsequently confirmed by whole genome sequencing and bioinformatics. Much of the past and recent extensive literature on Act A has utilized recombinant forms of the X3 variant, but currently there is little information about the expression and structural characteristics of the X1 and X2 variants. Thus, we first asked whether these variants are expressed by myel ...

Data set [6] concerns TIEG expression in THP1 cells. Briefly: TIEG (KLF10) mRNA induction in THP1 cells, qPCR. It is filed as cell-based, human. The note with it: 2 hr, rhAct A or conditioned medium of AD293 cells transfected with X2 or X3 constructs. An excerpt:
Fig 4 Expression and secretion of Act A variants. Expression constructs for full length X1, X2 and X3 variants were cloned into pcDNA 3.1 and transfected into AD293 and COS1 cells. A, diagram of Act A expression cassette with His tag on the 3’ end. […] Untransfected cells are shown in lane 2. […] D, immunoblots of conditioned medium samples separated under reducing conditions and probed with anti-His tag antibody. […] The band was undetectable in conditioned medium from cells transfected with the X1 vector (lanes 1, 4 and 9) or un-transfected cells (lanes 7 and 8). Lanes 4–6 are a longer exposure of lanes 1–3. E, THP1 cells were incubated for 2 hrs with conditioned media from AD293 cells that were untransfected (U) or transfected with X2 or X3 constructs. The cells were processed for q-PCR analysis of TIEG expression, an early response gene induced by Act A and TGF-β. […]
To assess biological activity of the expressed Act A variants, THP1 cells were incubated with 3 ml of conditioned medium obtained from cells transfected with each Act A variant for 2 hr, in the absence or presences of an ActA neutralizing antibody (BioLegend # 94746) the cells were pelleted and total RNA was isolated using TRIzol Reagent as described above. Induction of Kruppel-like factor 10 (KLF10, TIEG; accession NM_005655) mRNA, an early response gene induced by Act A and TGF-β was assessed by qPCR.
(In qPCR the cycle at which signal appears reflects the starting amount.)

The mark [7] stands for this setting: PMA 100 ng/ml (160 nM) for 4 hr, semi-quantitative PCR.

Entries after “also recorded” stand apart in the source; their conditions may differ.

As for “[B]-GGGLKRRRKKKTPKKKIKKSTHTKKPAR [X2^13-37, biotinylated synthetic peptide encompassing the novel HBD, identical in X1 and X2]”, in data set [1], the “Binding to substrate-bound HS” value was “interacted with HS with high affinity” and the “Binding to HS in presence of heparin competitor” value was “binding was blocked by pre-incubation of the peptide with excess heparin”. Moreover, in data set [1] (listed as Act A- X2^13-37), the “Binding to substrate-bound HS” value is on record as “binds HS with high affinity” and the “Binding to HS in presence of heparin competitor” value is “its binding is blocked by addition of soluble heparin”. Also, in the data set with U937 cell surface, the “Binding to U937 cell surface” value was “readily and efficiently interacted with the cell surface”; the “Binding to U937 cell surface in presence of heparin competitor” value is on record as “binding was blocked by pre-treatment with heparin”. For the same molecule, in the data set on U937 cell surface (listed as Act A- X2^13-37), the “Binding to U937 cell surface” value is given as “readily binds to the cell surface” and the “Binding to U937 cell surface in presence of heparin competitor” value is recorded as “its interaction is blocked by soluble heparin competitor”.

With “mature protein: mature Act A protein (cited studies)”, the “Circulating half-life (t1/2 fast)” value in data set [2] was 5.5 min.

Take [B]-GGGGKKKKKEEEGEGKKK [X3^259-272]: the “Binding to substrate-bound HS” value in data set [1] is reported as “failed to interact with HS at any concentration tested; also recorded: failed to interact with substrate-bound HS”; in data set [1] (listed as Act A-X3^259-272), “displays minimal binding”. Further, the results for the “Binding to U937 cell surface” value in the data set with U937 cell surface and in the data set with U937 cell surface (listed as Act A-X3^259-272) were “failed to interact with the cells; also recorded: failed to interact with substrate-bound HS or the cell surface” and “fails to bind”, respectively.

For the molecule “granulocyte macrophage-colony stimulating factor [GM-CSF]”, in data set [3] (GM-CSF 1 ng/ml for 8 hr, PCR), the “Expression of Act A X1 variant transcript in U937 cells” value is “only stimulated expression of the X1 variant in U937 cells; also recorded: induced expression of both Act A-X2 and -X1”; the “Expression of Act A X2 variant transcript in U937 cells” value was “upregulated the X2 variant in both cell lines; also recorded: induced expression of both Act A-X2 and -X1”. Moreover, the “Expression of Act A X2 variant transcript in THP1 cells” value in data set [4] was “upregulated the X2 variant in both cell lines; also recorded: induced expression of Act A-X2”. The “Induction of Act A expression in purified human monocytes” value in data set [5] was “induces strong expression of Act A in purified human monocytes”.

Turning to `CCCCCCCCCCCCCC(=O)O[C@@H]1[C@@H](C)[C@@]2(O)[C@@H](C=C(CO)C[C@]3(O)C(=O)C(C)=C[C@@H]23)[C@@H]2C(C)(C)[C@]12OC(C)=O` [PMA, Phorbol 12-myristate 13-acetate, reference compound], in data set [3] (setting [7]), the “Expression of Act A X1 variant transcript in U937 cells” value is “undetectable” and the “Expression of Act A X2 variant transcript in U937 cells” value is listed as “stimulated expression of transcripts encoding the X2 variant in U937 cells; also recorded: induced expression of Act A-X2”.

B1: rhAct A: commercially available recombinant human Act A (protein, UniProt P08476 311-426, looked up)
Inhibin beta A chain: GLECDGKVNICCKKQFFVSFKDIGWNDWIIAPSGYHANYCEGECPSHIAGTSGSSLSFHSTVINHYRMRGHSPFANLKSCCVPTKLRPMSMLYYDDGQNIIKKDIQNMIVEECGCS
modifications: Inhibin beta A chain
Take B1: the entries for the “Induction of TIEG expression (words)” value in data set [6] and in data set [6] (listed as rhActA) were “TIEG was rapidly upregulated” and “up-regulated”, respectively.

These data come from PMC6752817, “Identification and characterization of a novel heparan sulfate-binding domain in Activin A longest variants and implications for function” (PLoS ONE, 2019).
